Laboratory results reported in patent publication US11939314B2, “Quinolin-2-one derivatives” (MERCK PATENT GMBH, priority 2016, dated 2024).

Legend:
PDGFRalpha(V561D) = target: T1, PDGFRalpha(V561D) (Homo sapiens, UniProt P16234, V561D); experiment: PDGFRalpha(V561D) assay; assay type: biochemical; conditions: recombinant human PDGFRalpha aa 550-end, 200 μM ATP, 1.4E-06 means 1.4×10^−6, read-out: Inhibition (IC50) of PDGFRα (V561D)
T1 construct: recombinant human PDGFRalpha, amino acids 550end containing the V561 D mutation; 6His (N)
T1 sequence (P16234 550-1089 V561D): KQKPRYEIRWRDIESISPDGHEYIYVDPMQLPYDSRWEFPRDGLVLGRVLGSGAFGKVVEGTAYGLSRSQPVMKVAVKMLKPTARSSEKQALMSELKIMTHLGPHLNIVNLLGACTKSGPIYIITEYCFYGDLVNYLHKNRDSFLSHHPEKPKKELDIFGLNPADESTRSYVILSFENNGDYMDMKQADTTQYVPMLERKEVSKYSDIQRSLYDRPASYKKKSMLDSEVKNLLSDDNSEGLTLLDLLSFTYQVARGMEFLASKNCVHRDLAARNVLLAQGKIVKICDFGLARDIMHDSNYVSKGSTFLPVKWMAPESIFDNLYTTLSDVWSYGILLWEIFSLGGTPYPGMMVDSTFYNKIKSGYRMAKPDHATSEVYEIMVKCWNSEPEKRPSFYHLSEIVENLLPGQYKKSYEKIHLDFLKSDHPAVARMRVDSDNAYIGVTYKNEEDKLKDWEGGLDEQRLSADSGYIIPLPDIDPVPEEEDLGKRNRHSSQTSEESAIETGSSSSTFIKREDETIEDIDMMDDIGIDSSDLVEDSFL
How it was run: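 Radiometric filter-binding assay: substrate phosphorylation by recombinant N-His-tagged human PDGFRα 550-end V561D was quenched with 3% phosphoric acid after 40 min at room temperature, then counted.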

c-Kit(V654A) = target: T2, c-Kit(V654A) (Homo sapiens, UniProt P10721, V654A); experiment: c-Kit(V654A) assay; assay type: biochemical; conditions: recombinant human c-Kit aa 544-end, 200 μM ATP, 1.4E-06 means 1.4×10^−6, read-out: Inhibition (IC50) of c-KIT (V654A)
T2 construct: amino acids 544-end containing the V654A mutation; GST (N)
T2 sequence (P10721 544-976 V654A): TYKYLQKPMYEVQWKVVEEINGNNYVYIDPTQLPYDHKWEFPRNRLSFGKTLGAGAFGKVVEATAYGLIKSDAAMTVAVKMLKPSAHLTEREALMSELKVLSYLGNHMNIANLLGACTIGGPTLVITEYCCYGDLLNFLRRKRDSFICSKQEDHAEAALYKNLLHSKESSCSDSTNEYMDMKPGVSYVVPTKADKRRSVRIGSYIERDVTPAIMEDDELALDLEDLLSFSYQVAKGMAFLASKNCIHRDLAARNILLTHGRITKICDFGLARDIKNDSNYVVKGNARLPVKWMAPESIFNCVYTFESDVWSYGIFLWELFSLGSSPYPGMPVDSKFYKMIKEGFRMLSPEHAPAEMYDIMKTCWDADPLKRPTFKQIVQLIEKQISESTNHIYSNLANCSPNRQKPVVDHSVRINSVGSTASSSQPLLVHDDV
How it was run: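 Radiometric filter-binding read-out: substrate 33P incorporation counted by scintillation after P30 filtermat washes in 75 mM phosphoric acid and methanol. Enzyme: N-GST recombinant human c-Kit aa 544-end carrying V654A.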

SMILES	IC50 (PDGFRalpha(V561D))	IC50 (c-Kit(V654A))
CN(C)C[C@H]1CCCN1C(=O)c1ccc(-n2cc(-c3cc4cc(F)c(F)cc4[nH]c3=O)nn2)cc1 [A320, 3-{1-[4-((R)-2-dimethylaminomethyl-pyrrolidine-1-carbonyl)-phenyl]-1H-[1,2,3]triazol-4-yl}-6,7-difluoro-1H-quinolin-2-one]	99 nM	48 nM
CN(C)C[C@H]1CCCN1C(=O)c1ccc(-n2cc(-c3cc4cc(F)ccc4[nH]c3=O)nn2)cc1 [A321, 3-{1-[4-((R)-2-dimethylaminomethyl-pyrrolidine-1-carbonyl)-phenyl]-1H-[1,2,3]triazol-4-yl}-6-fluoro-1H-quinolin-2-one]	370 nM	44 nM
CN(C)C[C@@H]1CCCN1C(=O)c1ccc(-n2cc(-c3cc4cc(F)c(F)cc4[nH]c3=O)nn2)cc1 [A323, 3-{1-[4-((S)-2-dimethylaminomethyl-pyrrolidine-1-carbonyl)-phenyl]-1H-[1,2,3]triazol-4-yl}-6,7-difluoro-1H-quinolin-2-one]	220 nM	220 nM
CN(C)C[C@@H]1CCN(C(=O)c2ccc(-n3cc(-c4cc5cc(F)ccc5[nH]c4=O)nn3)cc2)C1 [A326, 3-{1-[4-((S)-3-dimethylaminomethyl-pyrrolidine-1-carbonyl)-phenyl]-1H-[1,2,3]triazol-4-yl}-6-fluoro-1H-quinolin-2-one]	940 nM	180 nM
CN1C[C@@H]2CN(C(=O)c3ccc(-n4cc(-c5cc6cc(F)ccc6[nH]c5=O)nn4)cc3)C[C@@H]2C1 [A327, 6-fluoro-3-{1-[4-((cis)-5-methyl-hexahydro-pyrrolo[3,4-c]pyrrole-2-carbonyl)-phenyl]-1H-[1,2,3]triazol-4-yl}-1H-quinolin-2-one]	220 nM	14 nM
CN(C)[C@@H]1CCCN(C(=O)c2ccc(-n3cc(-c4cc5cc(F)c(F)cc5[nH]c4=O)nn3)cc2)C1 [A328, 3-{1-[4-((R)-3-dimethylamino-piperidine-1-carbonyl)-phenyl]-1H-[1,2,3]triazol-4-yl}-6,7-difluoro-1H-quinolin-2-one]	97 nM	40 nM
CN(C)[C@@H]1CCCN(C(=O)c2ccc(-n3cc(-c4cc5cc(F)ccc5[nH]c4=O)nn3)cc2)C1 [A331, 3-{1-[4-((R)-3-dimethylamino-piperidine-1-carbonyl)-phenyl]-1H-[1,2,3]triazol-4-yl}-6-fluoro-1H-quinolin-2-one]	570 nM	63 nM
CN(C)[C@H]1CCCN(C(=O)c2ccc(-n3cc(-c4cc5cc(F)ccc5[nH]c4=O)nn3)cc2)C1 [A332, 3-{1-[4-((S)-3-dimethylamino-piperidine-1-carbonyl)-phenyl]-1H-[1,2,3]triazol-4-yl}-6-fluoro-1H-quinolin-2-one]	100 nM	71 nM
CN(C)[C@@H]1CCCN(C(=O)c2ccc(-n3cc(-c4cc5ccc(F)cc5[nH]c4=O)nn3)cc2)C1 [A333, 3-{1-[4-((R)-3-dimethylamino-piperidine-1-carbonyl)-phenyl]-1H-[1,2,3]triazol-4-yl}-7-fluoro-1H-quinolin-2-one]	120 nM	63 nM
CN(C)C[C@H]1CCN(C(=O)c2ccc(-n3cc(-c4cc5cc(F)c(F)cc5[nH]c4=O)nn3)cc2)C1 [A335, 3-{1-[4-((R)-3-dimethylaminomethyl-pyrrolidine-1-carbonyl)-phenyl]-1H-[1,2,3]triazol-4-yl}-6,7-difluoro-1H-quinolin-2-one]	680 nM	170 nM
CN(C)[C@H]1CCCN(C(=O)c2ccc(-n3cc(-c4cc5ccc(F)cc5[nH]c4=O)nn3)cc2)C1 [A336, 3-{1-[4-((S)-3-dimethylamino-piperidine-1-carbonyl)-phenyl]-1H-[1,2,3]triazol-4-yl}-7-fluoro-1H-quinolin-2-one]	240 nM	180 nM
CCN(CC)[C@H]1CCCN(C(=O)c2ccc(-n3cc(-c4cc5cc(F)ccc5[nH]c4=O)nn3)cc2)C1 [A337, 3-{1-[4-((S)-3-diethylamino-piperidine-1-carbonyl)-phenyl]-1H-[1,2,3]triazol-4-yl}-6-fluoro-1H-quinolin-2-one]	230 nM	75 nM
CCN(CC)[C@@H]1CCCN(C(=O)c2ccc(-n3cc(-c4cc5cc(F)ccc5[nH]c4=O)nn3)cc2)C1 [A338, 3-{1-[4-((R)-3-diethylamino-piperidine-1-carbonyl)-phenyl]-1H-[1,2,3]triazol-4-yl}-6-fluoro-1H-quinolin-2-one]	160 nM	39 nM
CN(C(=O)C1CCOCC1)c1ccc(-n2cc(-c3cc4cc(F)ccc4[nH]c3=O)nn2)cc1 [A345, tetrahydro-pyran-4-carboxylic acid {4-[4-(6-fluoro-2-oxo-1,2-dihydro-quinolin-3-yl)-[1,2,3]triazol-111]-phenyl}-methyl-amide]	1500 nM	12 nM
CC(=O)N(C)c1ccc(-n2cc(-c3cc4cc(F)c(F)cc4[nH]c3=O)nn2)cc1 [A352, N-{4-[4-(6,7-difluoro-2-oxo-1,2-dihydro-quinolin-3-yl)-[1,2,3]triazol-1-yl]-phenyl}-N-methyl-acetamide]	440 nM	260 nM
CC(=O)N(C)c1ccc(-n2cc(-c3cc4cc(F)ccc4[nH]c3=O)nn2)cc1 [A353, N-{4-[4-(6-fluoro-2-oxo-1,2-dihydro-quinolin-3-yl)-[1,2,3]triazol-1-yl]-phenyl}-N-methyl-acetamide]	190 nM	94 nM
CN1Cc2cc(-n3cc(-c4cc5cc(F)ccc5[nH]c4=O)nn3)ccc2C1=O [A354, 6-fluoro-3-[1-(2-methyl-1-oxo-2,3-dihydro-1H-isoindol-5-yl)-1H-[1,2,3]triazol-4-yl]-1H-quinolin-2-one]	420 nM	3100 nM

Now those with a lower IC50 (PDGFRalpha(V561D)), led by results:

IC50 (PDGFRalpha(V561D))	IC50 (c-Kit(V654A))	SMILES
92 nM	73 nM	CN(C)[C@H]1CCCN(C(=O)c2ccc(-n3cc(-c4cc5cc(F)c(F)cc5[nH]c4=O)nn3)cc2)C1 [A329, 3-{1-[4-((S)-3-dimethylamino-piperidine-1-carbonyl)-phenyl]-1H-[1,2,3]triazol-4-yl}-6,7-difluoro-1H-quinolin-2-one]
85 nM	9 nM	CN(C(=O)[C@H]1CCCO1)c1ccc(-n2cc(-c3cc4cc(F)ccc4[nH]c3=O)nn2)cc1 [A343, (R)-tetrahydro-furan-2-carboxylic acid {4-[4-(6-fluoro-2-oxo-1,2-dihydro-quinolin-3-yl)-[1,2,3]triazol-1-yl]-phenyl}-methyl-amide]
70 nM	19 nM	CN1CC[C@@H](Oc2ccc(-n3cc(-c4cc5cc(F)ccc5[nH]c4=O)nn3)cc2)C1 [A367, 6-fluoro-3-{1-[4-((R)-1-methyl-pyrrolidin-3-yloxy)-phenyl]-1H-[1,2,3]triazol-4-yl}-1H-quinolin-2-one]
65 nM	25 nM	CN(C)C[C@H]1CCCN1C(=O)c1ccc(-n2cc(-c3cc4cc(Cl)ccc4[nH]c3=O)nn2)cc1 [A322, 6-chloro-3-{1-[4-((R)-2-dimethylaminomethyl-pyrrolidine-1-carbonyl)-phenyl]-1H-[1,2,3]triazol-4-yl}-1H-quinolin-2-one]
41 nM	15 nM	CN(C)C[C@H]1CCN(C(=O)c2ccc(-n3cc(-c4cc5cc(F)ccc5[nH]c4=O)nn3)cc2)C1 [A334, 3-{1-[4-((R)-3-dimethylaminomethyl-pyrrolidine-1-carbonyl)-phenyl]-1H-[1,2,3]triazol-4-yl}-6-fluoro-1H-quinolin-2-one]
36 nM	27 nM	CN(C)C[C@@H]1CCCN1C(=O)c1ccc(-n2cc(-c3cc4cc(F)ccc4[nH]c3=O)nn2)cc1 [A319, 3-{1-[4-((S)-2-dimethylaminomethyl-pyrrolidine-1-carbonyl)-phenyl]-1H-[1,2,3]triazol-4-yl}-6-fluoro-1H-quinolin-2-one]
36 nM	25 nM	CNc1ccc(-n2cc(-c3cc4cc(F)ccc4[nH]c3=O)nn2)cc1 [A342, 6-fluoro-3-[1-(4-methylamino-phenyl)-1H-[1,2,3]triazol-4-yl]-1H-quinolin-2-one]
34 nM	23 nM	CN1CC[C@H](Oc2ccc(-n3cc(-c4cc5cc(Cl)ccc5[nH]c4=O)nn3)cc2)C1 [A368, 6-chloro-3-{1-[4-((S)-1-methyl-pyrrolidin-3-yloxy)-phenyl]-1H-[1,2,3]triazol-4-yl}-1H-quinolin-2-one]
21 nM	48 nM	CN(C)[C@H]1[C@@H]2CN(C(=O)c3ccc(-n4cc(-c5cc6cc(F)ccc6[nH]c5=O)nn4)cc3)C[C@@H]21 [A330, 3-{1-[4-(6-dimethylamino-3-aza-bicyclo[3.1.0]hexane-3-carbonyl)-phenyl]-1H-[1,2,3]triazol-4-yl}-6-fluoro-1H-quinolin-2-one]
16 nM	9.7 nM	CN(C(=O)[C@@H]1CCCO1)c1ccc(-n2cc(-c3cc4cc(F)ccc4[nH]c3=O)nn2)cc1 [A344, (S)-tetrahydro-furan-2-carboxylic acid {4-[4-(6-fluoro-2-oxo-1,2-dihydro-quinolin-3-yl)-[1,2,3]triazol-1-yl]-phenyl}-methyl-amide]
7.2 nM	270 nM	CN(C)C[C@@H]1CCCN1C(=O)c1ccc(-n2cc(-c3cc4cc(F)ccc4[nH]c3=O)cn2)cc1 [A324, 3-{1-[4-((S)-2-dimethylaminomethyl-pyrrolidine-1-carbonyl)-phenyl]-1H-pyrazol-4-yl}-6-fluoro-1H-quinolin-2-one]
3.8 nM	17 nM	CN(C)C[C@H]1CCCN1C(=O)c1ccc(-n2cc(-c3cc4cc(F)ccc4[nH]c3=O)cn2)cc1 [A325, 3-{1-[4-((R)-2-dimethylaminomethyl-pyrrolidine-1-carbonyl)-phenyl]-1H-pyrazol-4-yl}-6-fluoro-1H-quinolin-2-one]
